Where a SMILES comes first, the peptide text is derived from it. [ ]: non-standard residue; d: D form. The star is where a group is joined. 5FAM = O=C1OC2(c3ccc(O)cc3Oc3cc(O)ccc32)c2ccc(C(=O)*)cc21; βAla = NCCC(=O)O
Biological target: T1, ENL L550E (Homo sapiens, UniProt Q03111, L550E)
T1 construct: MBP-ENL (489-559) L550E; made in house; host or cells: Escherichia coli BL21 (DE3)
T1 sequence (Q03111 489-559 L550E): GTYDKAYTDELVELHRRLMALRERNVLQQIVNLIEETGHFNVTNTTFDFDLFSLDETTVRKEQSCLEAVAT
Experiment: FP saturation binding of Flu-DOT1L 10 mer to mutated ENL
Experimental: To further map and determined the residues in C-terminal domain of ENL that are essential for the interaction with DOT1L (so called “hot-spots”), an ENL mutant, L550E (FIG. 7A), was prepared which was reported to block the transforming capacity of MLL-ENL fusion protein (see, e.g., Yokoyama, A., et al., (2010) Cancer cell 17, 198-212).
Fluorescence polarization (FP) assay—FP experiments were performed in 96-well, black, round-bottom plates (Corning) using the plate reader (Biotek H1 hybrid). Fluorescein tagged DOT1L 10 mer peptide (Flu-DOT1L) was used as a fluorescent probe in the FP based binding assays. […] The plate was mixed on a shaker and incubated at room temperature to reach equilibrium. The polarization values in milli-polarization units (mP) were measured at an excitation wavelength at 485 nm and an emission wavelength at 530 nm. Polarization data were analyzed using GraphPad Prism 5.0 by non-linear fitting with a one-site binding model.

CC[C@H](C)[C@H](NC(=O)[C@@H]1CCCN1C(=O)[C@H](CC(C)C)NC(=O)CCNC(=O)CCNC(=O)[C@H](CCCCNC(=O)c1ccc2c(c1)C(=O)OC21c2ccc(O)cc2Oc2cc(O)ccc21)NC(C)=O)C(=O)N[C@@H](CO)C(=O)N[C@H](C(=O)N1CCC[C@H]1C(=O)N[C@@H](CC(C)C)C(=O)N[C@@H](CO)C(=O)N[C@H](C(=O)N[C@H](C(N)=O)C(C)C)[C@@H](C)O)[C@@H](C)CC [fluorescent labeled DOT1L 10-mer peptide] (Ac-K(5FAM)[βAla][βAla]LPISIPLSTV-NH2)
binding to ENL L550E mutant protein: did not show binding
